Measured values taken from patent US20070071773A1, “Compositions and methods for the treatment and prophylaxis of infections caused by gram positive bacteria” (priority 2002, published 2007).

Experiments:
[1] = tested on: trypsin-like GAS protease; assay: Degradation of IL-8 by JS95 supernatant (Western blot, ELISA); assay type: biochemical, Group A Streptococcus (GAS); conditions: for IL-8 degradation (ELISA): JS95 supernatant pretreated 30 min 37° C.: 0.3 μM aprotinin, 1 mM benzamidine, 100 μg/ml soybean trypsin inhibitor, FIG. 15A
Protocol: […] was grown in the absence and presence of SilCR (50 μg/ml). IL-8 was incubated with the indicated supernatant fractions and then subjected to 18% SDS-PAGE. The separated protein bands were electro-transferred to a nitrocellulose membrane. Anti-IL-8 antibody and a secondary antibody conjugated to horseradish peroxidase were used to detect IL-8. The number of the lane represents incubation of IL-8 with: 1, DMEM+FCS (control); 2, JS95 supernatant; 3, JS95 supernatant grown in the presence of SilCR; 4, JS95 supernatant, pretreated with pefabloc SC; 5, supernatant of JS95 grown in the absence of SilCR, then 50 μg/ml of SilCR was added to the degradation assay.
15A The column numbers represent the ELISA results after incubation of IL-8 with: 1, DMEM+FCS (control); and the supernatants of: 2, JS95; 3, JS95 grown in the presence of SilCR; 4, JS95 pretreated with aprotenin; 5, JS95 pretreated with soybean trypsin inhibitor; 6, JS95 pretreated with benzamidine. The background of the ELISA assay (0.08±0.004) was subtracted from the shown results. The data represent the mean ± SD, of three separate experiments.
(§1) A. Cell culture of JS95 strain was grown in THY to an OD600 of 0.2. To determine the effect of SilCR on chemokine proteolysis, the culture was split into two equal fractions, of which one received SilCR (25 μg/ml). Both fractions were further incubated until they reached an OD600 of 0.3. Bacteria were washed twice with sterile PBS and once with DMEM containing 10% FCS. The washed pellets were re-suspended in DMEM supplemented with FCS to their original volumes. SilCR (50 μg/ml) was added to the fraction that was grown in the presence of SilCR, and the two fractions were further incubated for 1 h at 37° C. Supernatants were collected after centrifugation. The proteolysis reaction contained: 0.08 ml of each supernatant, 100 ng of recombinant human IL-8/CXCL8 (R&D systems, Minneapolis, Minn.) or 30 ng of recombinant murine MIP-2 (R& D systems, Minneapolis, Minn.), 20 mM MOPS pH=7.2 in a final volume of 0.1 ml. The reaction was conducted for 1 h at 37° C., and stopped by boiling for 1 min.
(§2) B. For testing protease inhibitors, the supernatants were pre-incubated with the inhibitor for 30 min at 37° C., followed by the proteolysis reaction. The following concentrations of inhibitors were used: 4 mM pefabloc SC; 0.5 mM PMSF; 0.3 μM aprotinin; 1 mM benzamidine; 100 μg/ml soybean trypsin inhibitor (STI).
C. Proteolysis of chemokines was determined by ELISA and Dot-blot. IL-8 content was quantified by ELISA using the Quantikine kit for determination of human IL-8 (R&D Systems, Minneapolis, Minn.) according to the manufacturer's instructions.

[2] = tested on: trypsin-like GAS protease; assay: Degradation of MIP-2 by JS95 supernatant (dot blot); assay type: biochemical, Group A Streptococcus (GAS); conditions: pretreatment of JS95 supernatant: 4 mM pefabloc SC; 0.3 μM aprotinin; 1 mM benzamidine; 100 μg/ml STI
Protocol: 15B. The dots in the control panel represent MIP-2 that was incubated in DMEM+FCS, in the absence of JS95 supernatant and spotted at the following doses: 30, 15, 7.5, 3.75 and 1.87 ng (from left to right). The dots in the lower panel were generated in the same way, except that MIP-2 was previously incubated with JS95 supernatant.
as §1, §2
Samples of 50 μl from the proteolysis reaction were diluted in PBS to a final volume of 0.5 ml and passed through a 96-wells dot-blotter onto a 0.2-μm-nitrocellulose membrane. Detection of MIP-2 was performed using anti-mouse MIP-2 polyclonal antibodies (R&D Systems Minneapolis, Minn.) followed by addition of anti-mouse IgG-HRP antibody. Dots were detected using the SuperSignal West Pico chemiluminescent detection kit (Pierce, Rockford, Ill.).

Compound | IL-8 degradation (ELISA) [1] | MIP-2 degradation [2] | IL-8 degradation (Western blot) ([1]; JS95 supernatant pretreated 30 min 37° C. with 4 mM pefabloc SC, FIG. 14)
N=C(N)c1ccccc1 [benzamidine] | completely abrogated | blocked | 
Cl.NCCc1ccc(S(=O)(=O)F)cc1 [pefabloc SC] |  | blocked | almost completely abolished
aprotinin | completely inhibited | blocked | 
soybean trypsin inhibitor | completely abrogated | blocked | 
